Results from PubChem BioAssay AID2060510 (Molecular Pharmacology Branch, DTP, NCI, 2025).

Tested on: 439559-082-T-J2-PDC spheroids viability
Test: Anticancer human tumor 439559-082-T-J2-PDC patient-derived colon adenocarcinoma cell line growth inhibition [GQUAD]
Settings: for IC50: curve of first compound; for viability, T/C: stronger effect = lower value
Procedure, shortened: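 Viability of tumor cells grown as complex spheroids with endothelial and stromal cells, exposed to drug combinations. Top concentration at or near clinical Cmax (else 10 microM), diluted in half-log increments.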

[1] = second compound 0.0316 µM, first compound 0.0316 µM
[2] = second compound 0.0316 µM, first compound 0.316 µM
[3] = second compound 0.1 µM, first compound 0.0316 µM
[4] = second compound 0.1 µM, first compound 0.316 µM
[5] = second compound 0.316 µM, first compound 0.0316 µM
[6] = second compound 0.316 µM, first compound 0.316 µM
[7] = second compound 1 µM, first compound 0.0316 µM
[8] = second compound 1 µM, first compound 0.316 µM
[9] = second compound 3.16 µM, first compound 0.0316 µM
[10] = second compound 3.16 µM, first compound 0.316 µM
[11] = second compound 10 µM, first compound 0.0316 µM
[12] = second compound 10 µM, first compound 0.316 µM
[13] = second compound 0.0316 µM, first compound 0.1 µM
[14] = second compound 0.0316 µM, first compound 1 µM
[15] = second compound 0.0316 µM, first compound 3.16 µM
[16] = second compound 0.0316 µM, first compound 10 µM
[17] = second compound 0.1 µM, first compound 0.1 µM
[18] = second compound 0.1 µM, first compound 1 µM
[19] = second compound 0.1 µM, first compound 3.16 µM
[20] = second compound 0.1 µM, first compound 10 µM
[21] = second compound 0.316 µM, first compound 0.1 µM
[22] = second compound 0.316 µM, first compound 1 µM
[23] = second compound 0.316 µM, first compound 3.16 µM
[24] = second compound 0.316 µM, first compound 10 µM
[25] = second compound 1 µM, first compound 0.1 µM
[26] = second compound 1 µM, first compound 1 µM
[27] = second compound 1 µM, first compound 3.16 µM
[28] = second compound 1 µM, first compound 10 µM
[29] = second compound 3.16 µM, first compound 0.1 µM
[30] = second compound 3.16 µM, first compound 1 µM
[31] = second compound 3.16 µM, first compound 3.16 µM
[32] = second compound 3.16 µM, first compound 10 µM
[33] = second compound 10 µM, first compound 0.1 µM
[34] = second compound 10 µM, first compound 1 µM
[35] = second compound 10 µM, first compound 3.16 µM
[36] = second compound 10 µM, first compound 10 µM
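Further: spheroids exposed to the agents for 7 days before readout.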
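Wherever viability, T/C is given: percent of luminescence signal in DMSO vehicle wells taken as 100% viability.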

Structure (SMILES): CCc1c2c(nc3ccc(O)cc13)-c1cc3c(c(=O)n1C2)COC(=O)[C@]3(O)CC + Cc1[nH]c2ccc(F)cc2c1-c1nc2c3cccnc3c3ncccc3c2[nH]1
- IC50 (second compound 0.0316 µM): 0.223 µM
- IC50 (second compound 0.1 µM): > 0.316 µM
- IC50 (second compound 0.316 µM): > 0.316 µM
- IC50 (second compound 1 µM): 0.227 µM
- IC50 (second compound 3.16 µM): 0.0854 µM
- IC50 (second compound 10 µM): 0.167 µM
- viability, T/C (second compound 0.0316 µM, first compound 0.000999 µM): 93.4%
- viability, T/C (second compound 0.0316 µM, first compound 0.00316 µM): 90.6%
- viability, T/C (second compound 0.0316 µM, first compound 0.00999 µM): 88.5%
- viability, T/C [1]: 78.6%
- viability, T/C (second compound 0.0316 µM, first compound 0.0999 µM): 63.2%
- viability, T/C [2]: 44.2%
- viability, T/C (second compound 0.1 µM, first compound 0.000999 µM): 102%
- viability, T/C (second compound 0.1 µM, first compound 0.00316 µM): 93.1%
- viability, T/C (second compound 0.1 µM, first compound 0.00999 µM): 73.2%
- viability, T/C [3]: 73.8%
- viability, T/C (second compound 0.1 µM, first compound 0.0999 µM): 65.8%
- viability, T/C [4]: 49.3%
- viability, T/C (second compound 0.316 µM, first compound 0.000999 µM): 109%
- viability, T/C (second compound 0.316 µM, first compound 0.00316 µM): 97.1%
- viability, T/C (second compound 0.316 µM, first compound 0.00999 µM): 84.5%
- viability, T/C [5]: 76.4%
- viability, T/C (second compound 0.316 µM, first compound 0.0999 µM): 70.2%
- viability, T/C [6]: 51.1%
- viability, T/C (second compound 1 µM, first compound 0.000999 µM): 90.9%
- viability, T/C (second compound 1 µM, first compound 0.00316 µM): 79.8%
- viability, T/C (second compound 1 µM, first compound 0.00999 µM): 77.8%
- viability, T/C [7]: 70.7%
- viability, T/C (second compound 1 µM, first compound 0.0999 µM): 65.6%
- viability, T/C [8]: 43.6%
- viability, T/C (second compound 3.16 µM, first compound 0.000999 µM): 89.1%
- viability, T/C (second compound 3.16 µM, first compound 0.00316 µM): 74.3%
- viability, T/C (second compound 3.16 µM, first compound 0.00999 µM): 62.9%
- viability, T/C [9]: 65.6%
- viability, T/C (second compound 3.16 µM, first compound 0.0999 µM): 51.9%
- viability, T/C [10]: 32.5%
- viability, T/C (second compound 10 µM, first compound 0.000999 µM): 73%
- viability, T/C (second compound 10 µM, first compound 0.00316 µM): 75.3%
- viability, T/C (second compound 10 µM, first compound 0.00999 µM): 65.6%
- viability, T/C [11]: 60.7%
- viability, T/C (second compound 10 µM, first compound 0.0999 µM): 63.1%
- viability, T/C [12]: 39%

Structure (SMILES): COc1cccc2c1C(=O)c1c(O)c3c(c(O)c1C2=O)CC(O)(C(=O)CO)CC3OC1CC(N)C(O)C(C)O1 (stereo unspecified) + Cc1[nH]c2ccc(F)cc2c1-c1nc2c3cccnc3c3ncccc3c2[nH]1
- IC50 (second compound 0.0316 µM): > 10 µM
- IC50 (second compound 0.1 µM): > 10 µM
- IC50 (second compound 0.316 µM): > 10 µM
- IC50 (second compound 1 µM): > 10 µM
- IC50 (second compound 3.16 µM): 9.82 µM
- IC50 (second compound 10 µM): 5.25 µM
- viability, T/C [1]: 98.5%
- viability, T/C [13]: 100%
- viability, T/C [2]: 96.2%
- viability, T/C [14]: 82.1%
- viability, T/C [15]: 61.5%
- viability, T/C [16]: 54.2%
- viability, T/C [3]: 107%
- viability, T/C [17]: 99%
- viability, T/C [4]: 89.1%
- viability, T/C [18]: 87.5%
- viability, T/C [19]: 69.5%
- viability, T/C [20]: 54.1%
- viability, T/C [5]: 98.9%
- viability, T/C [21]: 95.3%
- viability, T/C [6]: 85.9%
- viability, T/C [22]: 89.2%
- viability, T/C [23]: 62.7%
- viability, T/C [24]: 50.8%
- viability, T/C [7]: 87.9%
- viability, T/C [25]: 87%
- viability, T/C [8]: 82.1%
- viability, T/C [26]: 83.2%
- viability, T/C [27]: 67.3%
- viability, T/C [28]: 56.2%
- viability, T/C [9]: 80.4%
- viability, T/C [29]: 75%
- viability, T/C [10]: 85.2%
- viability, T/C [30]: 64.2%
- viability, T/C [31]: 63.3%
- viability, T/C [32]: 49.7%
- viability, T/C [11]: 92.3%
- viability, T/C [33]: 80.3%
- viability, T/C [12]: 69.8%
- viability, T/C [34]: 68.2%
- viability, T/C [35]: 53.2%
- viability, T/C [36]: 43.9%

Structure (SMILES): Cc1cccc(N(C)C(=O)C2C(O)CCN2c2nc(C)cc(C(F)(F)F)c2C#N)c1 (stereo unspecified) + Cc1[nH]c2ccc(F)cc2c1-c1nc2c3cccnc3c3ncccc3c2[nH]1
- IC50 (second compound 0.0316 µM): > 10 µM
- IC50 (second compound 0.1 µM): > 10 µM
- IC50 (second compound 0.316 µM): > 10 µM
- IC50 (second compound 1 µM): > 10 µM
- IC50 (second compound 3.16 µM): > 10 µM
- IC50 (second compound 10 µM): > 10 µM
- viability, T/C [1]: 98.7%
- viability, T/C [13]: 106%
- viability, T/C [2]: 99.8%
- viability, T/C [14]: 103%
- viability, T/C [15]: 92.8%
- viability, T/C [16]: 95.9%
- viability, T/C [3]: 106%
- viability, T/C [17]: 91.6%
- viability, T/C [4]: 99.8%
- viability, T/C [18]: 96.3%
- viability, T/C [19]: 100%
- viability, T/C [20]: 92.6%
- viability, T/C [5]: 98.6%
- viability, T/C [21]: 101%
- viability, T/C [6]: 92.7%
- viability, T/C [22]: 108%
- viability, T/C [23]: 96.2%
- viability, T/C [24]: 83.3%
- viability, T/C [7]: 96.2%
- viability, T/C [25]: 91.2%
- viability, T/C [8]: 87.4%
- viability, T/C [26]: 100%
- viability, T/C [27]: 88.9%
- viability, T/C [28]: 88.1%
- viability, T/C [9]: 78.6%
- viability, T/C [29]: 77.7%
- viability, T/C [10]: 93.1%
- viability, T/C [30]: 88.3%
- viability, T/C [31]: 84.7%
- viability, T/C [32]: 77%
- viability, T/C [11]: 85.5%
- viability, T/C [33]: 83.6%
- viability, T/C [12]: 87.5%
- viability, T/C [34]: 84.9%
- viability, T/C [35]: 87%
- viability, T/C [36]: 78.5%
